Assay: xn = mol fraction of the nth substance listed
Conditions: 102 kPa

O=C(O)C(F)(F)C(F)(F)C(F)(F)C(F)(F)F + CC[n+]1ccn(C)c1.[Cl-]
viscosity [mPa·s]
Conditions	x2 = 0.3346	x2 = 0.5026	x2 = 0.6636
293.15 K	35.2	92.1	–
298.15 K	29	72.1	213.4
303.15 K	–	57.4	158.1
308.15 K	20.4	46.4	119.8
313.15 K	–	38.2	92.7
318.15 K	14.99	–	73
323.15 K	13.02	–	58.4
328.15 K	11.4	22.58	47.5
333.15 K	10.04	–	–
338.15 K	–	–	32.6
343.15 K	7.94	14.53	27.5
348.15 K	7.13	–	23.56
353.15 K	–	11.25	20.29
